Drawing on the OligoGym collection, this text covers target mRNA inhibition for 99 sequences.

Values joined by “and” are separate entries in the source; they are usually repeats but may differ in a detail not shown here. Identical values can stand only once. After the bases stand the sugars from the 5' end (letter, count) and the backbone: PS all phosphorothioate, else s phosphorothioate and o phosphodiester by linkage. Methylation of C is not given here. k = constrained ethyl (cEt); d = 2'-deoxy (DNA)

For this series, the target named is MALAT1. The settings on record: ASO, A431, 0.005 µM.

Take TACCTAAACCCACCCC (sugars k3 d10 k3, PS): the target mRNA inhibition came out at 6%. As to CAACTGGGAATACTCT (sugars k3 d10 k3, PS), the target mRNA inhibition turned out to be 20%.

Consider AGCTATTAAAATTACG (sugars k3 d10 k3, PS), for which the target mRNA inhibition was determined as 22%. The figure for TACCATATCCAAACAA (sugars k3 d10 k3, PS) is 11%; for CGGTTAAAAATAGGTT (sugars k3 d10 k3, PS) it is 6%. The figure for CTTCGGTGCCTTTAGT (sugars k3 d10 k3, PS) is 23%; for CTCGGGCTGCAGGCTG (sugars k3 d10 k3, PS) it is 19%. The figure for TGGAATCCTGTCTGCT (sugars k3 d10 k3, PS) is 17%; for GCTGATAAACTCACTG (sugars k3 d10 k3, PS) it is 55% and 65%; for GATCATAATCTCCCAC (sugars k3 d10 k3, PS) it is 41%. With AAGAACTAGTGGTTCC (sugars k3 d10 k3, PS), the target mRNA inhibition is 30%. The figure for TAAGAACTCCACAGCT (sugars k3 d10 k3, PS) is 41%.

For TTAAAGTGTGATAGTT (sugars k3 d10 k3, PS), the target mRNA inhibition is 6%. The figure for TTCAATCACAAATACG (sugars k3 d10 k3, PS) is 19%; for CCCCCAAGATTGCCCC (sugars k3 d10 k3, PS) it is 11%; for TCCCTGTTAAGACCAT (sugars k3 d10 k3, PS) it is 27%. The figure for TTCGGTTTAATCTCTT (sugars k3 d10 k3, PS) is 94%.

Consider CCTCAATCCACTTGAT (sugars k3 d10 k3, PS), for which the target mRNA inhibition was -2%. As for GCTCGCTTGCTCCTCA (sugars k3 d10 k3, PS), the target mRNA inhibition was 39%. The figure for TACTATAGCATCTGTG (sugars k3 d10 k3, PS) is -7%; for TAACTGATCTGACTTT (sugars k3 d10 k3, PS) it is 26%; for CCTTCGGATGCTTCAC (sugars k3 d10 k3, PS) it is 58% and 78%. The figure for GACCATCCCAAAATGC (sugars k3 d10 k3, PS) is 8%.

Take AGAAATCGGAGCAGCA (sugars k3 d10 k3, PS): the target mRNA inhibition turned out to be 9%. For TTGCCTACCACTCTAA (sugars k3 d10 k3, PS), the target mRNA inhibition turned out to be 0%. The figure for CTGCTCGCCTCCTCCG (sugars k3 d10 k3, PS) is 16%. The figure for TAACTTCCCCCAGCTT (sugars k3 d10 k3, PS) is 20%; for CATCAGTAGTAAGAAT (sugars k3 d10 k3, PS) it is 14%. As for GTCACTGGATAAGTAT (sugars k3 d10 k3, PS), the target mRNA inhibition came out at 48%.

As to CTTCAACAATCACTAC (sugars k3 d10 k3, PS), the target mRNA inhibition was 2%.

Regarding GCCAACTTGGAAGTTG (sugars k3 d10 k3, PS), the target mRNA inhibition is -19%.

For GTCTTAGCAGAGAATT (sugars k3 d10 k3, PS), the target mRNA inhibition was determined as 47%. The figure for TAGAGCTTCTCCATTT (sugars k3 d10 k3, PS) is -15%; for TACCTCTTAAAGCACT (sugars k3 d10 k3, PS) it is -17%; for TTATCCTGATATTGGA (sugars k3 d10 k3, PS) it is -12%. The figure for CTTCAAGCACCGCTTG (sugars k3 d10 k3, PS) is 21% and 28%; for TTAAAGTAGACCAACT (sugars k3 d10 k3, PS) it is 27%. The figure for AAACGAAACATTGGCA (sugars k3 d10 k3, PS) is 46%; for ACTGAATCCACTTCTG (sugars k3 d10 k3, PS) it is 35%; for AGCTTCATCAAACACT (sugars k3 d10 k3, PS) it is 3%. Turning to GGTCTAGGATCCTCTA (sugars k3 d10 k3, PS), the target mRNA inhibition amounted to 23%.

As to GCCTTTATCACTCAGC (sugars k3 d10 k3, PS), the target mRNA inhibition worked out at 29%. The figure for CTACAGACAAACACTA (sugars k3 d10 k3, PS) is 6%; for CAAACTAAGCTACTAT (sugars k3 d10 k3, PS) it is 15%. CGCAGGGATTTGAACC (sugars k3 d10 k3, PS): the target mRNA inhibition was 15%. The figure for CTGGAAAAGCTAGGGA (sugars k3 d10 k3, PS) is -13%; for ACATATTGCCGACCTC (sugars k3 d10 k3, PS) it is 43%. The figure for CACTGCCAACTAATTG (sugars k3 d10 k3, PS) is 39%; for CTCCCCCCCGCCTCAG (sugars k3 d10 k3, PS) it is 12%; for AAAGGTTACCATAAGT (sugars k3 d10 k3, PS) it is 5%. The figure for GGAGTTACTTGCCAAC (sugars k3 d10 k3, PS) is 24%; for GGAGGCAAAAAGTAGT (sugars k3 d10 k3, PS) it is 9%. Consider GGACGGTTGAGAAGTG (sugars k3 d10 k3, PS), for which the target mRNA inhibition was -4%. As to TCCCGTACTTCTGTCT (sugars k3 d10 k3, PS), the target mRNA inhibition was 41%. The figure for AATGGACATCTCTTCC (sugars k3 d10 k3, PS) is 27%; for CCTCACGGATTTTTAC (sugars k3 d10 k3, PS) it is -1%.

For the sequence TCAATAGTACTATAGC (sugars k3 d10 k3, PS), the target mRNA inhibition was found to be 25%. The figure for CTTGAGATTTGGGCTT (sugars k3 d10 k3, PS) is 12% and 2%; for AACCGGAGCAGGAAGA (sugars k3 d10 k3, PS) it is -16%; for TCTTCCGCTCAAATCC (sugars k3 d10 k3, PS) it is 41%. Turning to CAACATATTGCCGACC (sugars k3 d10 k3, PS), the target mRNA inhibition was -26%. The figure for ATGCACTGGTACACCC (sugars k3 d10 k3, PS) is 24%. The figure for AGTTAATGTCAGCCCA (sugars k3 d10 k3, PS) is 34%. The figure for CATATTTTAAACGGGT (sugars k3 d10 k3, PS) is -16%. On to CGTTAAAAACTTAACG (sugars k3 d10 k3, PS), for which the target mRNA inhibition was found to be 13%. Regarding CATGGATTTCAAGGTC (sugars k3 d10 k3, PS), the target mRNA inhibition was 11%. As to AGGTTACCATAAGTAA (sugars k3 d10 k3, PS), the target mRNA inhibition came out at 10%.

Turning to TATGAACCAAAGCTGC (sugars k3 d10 k3, PS), the target mRNA inhibition was 7%. The figure for TCCCATAATTGTAGTT (sugars k3 d10 k3, PS) is 27%. For the sequence AAATACTTCATTACCC (sugars k3 d10 k3, PS), the target mRNA inhibition stood at 24%. TACAACAAGTAAGCCC (sugars k3 d10 k3, PS): the target mRNA inhibition is 20%. The figure for TTCGGCTTCTTTTATT (sugars k3 d10 k3, PS) is 44%. The figure for GAGCATTGGAGATCAG (sugars k3 d10 k3, PS) is 29%; for TCTAGGCCATCATACT (sugars k3 d10 k3, PS) it is 40%. The figure for GCCTACCACTCTAAGA (sugars k3 d10 k3, PS) is 29%. Turning to AATTACTTCCGTTACG (sugars k3 d10 k3, PS), the target mRNA inhibition is 43%. The figure for ATCCACTTGATCCCAA (sugars k3 d10 k3, PS) is 16%; for ACTCGCTCCTTCCTGG (sugars k3 d10 k3, PS) it is 48%. The figure for TACAGAAAGAGTCCTG (sugars k3 d10 k3, PS) is 17%; for CGAGAAATCGGAGCAG (sugars k3 d10 k3, PS) it is 22%; for CGGCCCCCCAGTTGCC (sugars k3 d10 k3, PS) it is 17%. As for TACGCAACTGAGCCCC (sugars k3 d10 k3, PS), the target mRNA inhibition is 0%. The figure for CAAACTGCTTACAGAT (sugars k3 d10 k3, PS) is 31%; for CCAACCGTAACAGGCC (sugars k3 d10 k3, PS) it is 27%.

Regarding GCCTTTAGGATTCTAG (sugars k3 d10 k3, PS), the target mRNA inhibition was determined as 30%.

Consider GCAAGGTCTCATACAC (sugars k3 d10 k3, PS), for which the target mRNA inhibition was 48% and 59%. The figure for ACTACCATATCCAAAC (sugars k3 d10 k3, PS) is 27%; for CTTTCCATTACGCAAC (sugars k3 d10 k3, PS) it is 0%; for CTTAAGAGGGCAGGAG (sugars k3 d10 k3, PS) it is -4%. Take AGATTCACTGAATCCA (sugars k3 d10 k3, PS): the target mRNA inhibition amounted to 6%. The figure for TACTTGCCAACTTGGA (sugars k3 d10 k3, PS) is 51%. The figure for TATAAGGACAGCTAAG (sugars k3 d10 k3, PS) is 21%; for AAAAGATCGCCTTCAA (sugars k3 d10 k3, PS) it is 34%; for TAAATGACGCAATTCT (sugars k3 d10 k3, PS) it is 8%. The figure for GGTTATAGCTTGACAA (sugars k3 d10 k3, PS) is 78% and 95%; for GATTAATGTAGTGTAA (sugars k3 d10 k3, PS) it is 23%. For the sequence ACAAACTTGCCATCTA (sugars k3 d10 k3, PS), the target mRNA inhibition stood at 39%.

Turning to TCTAGGATCCTCTACG (sugars k3 d10 k3, PS), the target mRNA inhibition is -24%. Consider TGAACCGGAGCAGGAA (sugars k3 d10 k3, PS), for which the target mRNA inhibition came out at 5%.
